This note sets out measurements from patent publication US10952436B2, “Microbiocidal quinoline (thio)carboxamide derivatives” (SYNGENTA PARTICIPATIONS AG, priority 2017, dated 2021).

The test system of data set [1] is Fusarium culmorum. In words: microbe, parasite or virus in culture. Format: cell-based. As to conditions: read-out: control of Fusarium culmorum.
For data set [2], the system named is Sclerotinia sclerotiorum. Nature of the data set: Sclerotinia sclerotiorum/Liquid Culture (Cottony Rot). As to conditions: read-out: control of Sclerotinia sclerotiorum.
Procedure: Mycelia fragments of a newly grown liquid culture of the fungus are directly mixed into nutrient broth (Vogels broth). After placing a (DMSO) solution of test compound into a microtiter plate (96-well format) the nutrient broth containing the fungal material is added. The test plates are incubated at 24° C. and the inhibition of growth is determined photometrically 3-4 days after application.
Data set [3] relates to Glomerella lagenarium (Colletotrichum lagenarium). In words: Glomerella lagenarium (Colletotrichum lagenarium)/Liquid Culture (Anthracnose). Format: cell-based. As to conditions: Colletotrichum orbiculare; 200 ppm; liquid culture, compared to untreated control, 3-4 days after application; read-out: control of Glomerella lagenarium.
For data set [4], the system named is Fusarium culmorum. In words: whole plant or invertebrate. The format is in vivo. As to conditions: in Triticum aestivum, read-out: control of Fusarium culmorum.
The test system of data set [5] is Magnaporthe grisea (Pyricularia oryzae). In words: whole plant or invertebrate. The conditions noted are these: foliar, read-out: control of Magnaporthe grisea. The format is in vivo.
For data set [6], the system named is Botryotinia fuckeliana (Botrytis cinerea). In words: Botryotinia fuckeliana (Botrytis cinerea)/Liquid Culture (Gray Mould). The format is cell-based. As to conditions: 200 ppm, liquid culture, compared to untreated control, 3-4 days after application, read-out: control of Botryotinia fuckeliana.
For data set [7], the system named is Magnaporthe grisea (Pyricularia oryzae). In words: microbe, parasite or virus in culture. The format is cell-based. As to conditions: read-out: control of Magnaporthe grisea.
For data set [8], the system named is Monographella nivalis (Microdochium nivale). In words: Monographella nivalis (Microdochium nivale)/Liquid Culture (Foot Rot Cereals). Format: cell-based. The conditions noted are these: 200 ppm, liquid culture, compared to untreated control, 4-5 days after application, read-out: control of Monographella nivalis.

On to `Cc1nc2c(F)cccc2cc1NC(=O)C(C)(Cc1cccc(F)c1)CC(F)(F)F` (stereo not drawn) [Compound E-8, 4,4,4-trifluoro-N-(8-fluoro-2-methyl-3-quinolyl)-2-[(3-fluorophenyl)methyl]-2-methyl-butanamide], for which the inhibition of growth at 200 ppm in data set [1], in data set [3], in data set [6] and in [7] was at least 80% in each case. Also, the inhibition of growth at 20 ppm in [2] is at least 80%. Besides, the pest or weed control at 200 ppm in data set [4] and in data set [5] was at least 80% throughout.

In general, melting point refers to the temperature, or range, at which the solid turns liquid. In turn, `Cc1nc2c(Cl)cccc2cc1NC(=O)C(C)(Cc1ccccc1)CC(C)C` (stereo not drawn) [Compound E-13, 2-benzyl-N-(8-chloro-2-methyl-3-quinolyl)-2,4-dimethyl-pentanamide] gave a melting point of 99 to 100 °C. Moreover, in [8], the inhibition of growth at 200 ppm is at least 80%. In addition, the inhibition of growth at 200 ppm in data set [1] was at least 80%. Further, in data set [2], the inhibition of growth at 20 ppm was at least 80%. For the same compound, the inhibition of growth at 200 ppm in [3] was at least 80%. The pest or weed control at 200 ppm in data set [5] was at least 80%. In [6], the inhibition of growth at 200 ppm was at least 80%. The inhibition of growth at 200 ppm in data set [7] was at least 80%.

Turning to `Cc1nc2c(Cl)cccc2cc1NC(=O)C(C)(Cc1ccccc1)CC(F)(F)F` (stereo not drawn) [Compound E-17, 2-benzyl-N-(8-chloro-2-methyl-3-quinolyl)-4,4,4-trifluoro-2-methyl-butanamide], the melting point lay within 47 to 50 °C. For the same compound, the inhibition of growth at 200 ppm in data set [8] was at least 80%. The inhibition of growth at 200 ppm in [1] is at least 80%. Moreover, in data set [2], the inhibition of growth at 20 ppm was at least 80%. The inhibition of growth at 200 ppm in [3] is at least 80%. Besides, the pest or weed control at 200 ppm in [5] was at least 80%. The inhibition of growth at 200 ppm in [6] was at least 80%. The inhibition of growth at 200 ppm in data set [7] was at least 80%.

For `Cc1c(NC(=O)C(Cc2ccccc2)CC(C)C)cnc2c(F)cccc12` (stereo not drawn) [Compound E-19, 2-benzyl-N-(8-fluoro-4-methyl-3-quinolyl)-4-methyl-pentanamide], the inhibition of growth at 200 ppm in [1], in data set [3], in data set [6] and in [7] was at least 80% in each case. Also, the inhibition of growth at 20 ppm in data set [2] is at least 80%. Besides, the pest or weed control at 200 ppm in data set [4] and in data set [5] was at least 80% in each case.

In the case of `C=C(Cl)CC(C)(Cc1ccccc1)C(=O)Nc1cnc2c(F)cccc2c1C` (stereo not drawn) [Compound E-20, 2-benzyl-4-chloro-N-(8-fluoro-4-methyl-3-quinolyl)-2-methyl-pent-4-enamide], the melting point was 124 to 126 °C. The inhibition of growth at 200 ppm in data set [8] is at least 80%. Further, the inhibition of growth at 200 ppm in data set [1] was at least 80%. For the same compound, the inhibition of growth at 20 ppm in [2] was at least 80%. In addition, in [3], the inhibition of growth at 200 ppm is at least 80%. For the same compound, the pest or weed control at 200 ppm in data set [4] was at least 80%. In addition, the pest or weed control at 200 ppm in [5] was at least 80%. Also, the inhibition of growth at 200 ppm in data set [6] was at least 80%. Besides, the inhibition of growth at 200 ppm in data set [7] was at least 80%.

In the case of `C=C(Cl)CC(C)(Cc1ccccc1)C(=O)Nc1cc2cccc(F)c2nc1C` (stereo not drawn) [Compound E-21, 2-benzyl-4-chloro-N-(8-fluoro-2-methyl-3-quinolyl)-2-methyl-pent-4-enamide], the melting point is 121 to 123 °C. Also, the inhibition of growth at 200 ppm in [1] was at least 80%. In data set [2], the inhibition of growth at 20 ppm is at least 80%. The inhibition of growth at 200 ppm in [3] was at least 80%. Further, in data set [4], the pest or weed control at 200 ppm is at least 80%. In addition, the pest or weed control at 200 ppm in data set [5] is at least 80%. Also, the inhibition of growth at 200 ppm in data set [6] is at least 80%. For the same compound, the inhibition of growth at 200 ppm in [7] is at least 80%.

For `Cc1c(NC(=O)C(Cc2ccccc2)CC(F)(F)F)cnc2c(F)cccc12` (stereo not drawn) [Compound E-45, 2-benzyl-4,4,4-trifluoro-N-(8-fluoro-4-methyl-3-quinolyl)butanamide], the melting point lay in the range of 165 to 167 °C. For the same compound, the inhibition of growth at 200 ppm in data set [1] is at least 80%. For the same compound, the inhibition of growth at 20 ppm in [2] is at least 80%. The inhibition of growth at 200 ppm in data set [3] is at least 80%. In addition, the pest or weed control at 200 ppm in data set [4] was at least 80%. Also, the pest or weed control at 200 ppm in [5] was at least 80%. Besides, the inhibition of growth at 200 ppm in data set [6] was at least 80%. The inhibition of growth at 200 ppm in [7] is at least 80%.

With `CC(Cc1ccccc1)(CC(F)(F)F)C(=O)Nc1cnc2c(F)cccc2c1` (stereo not drawn) [Compound E-80, 2-benzyl-4,4,4-trifluoro-N-(8-fluoro-3-quinolyl)-2-methyl-butanamide], the inhibition of growth at 200 ppm in [8], in [1], in data set [3], in data set [6] and in data set [7] was at least 80% each time. Also, the inhibition of growth at 20 ppm in data set [2] was at least 80%. Besides, the pest or weed control at 200 ppm in [4] and in data set [5] was at least 80% throughout.

With `C=C(C)C[C@@](C)(Cc1ccccc1)C(=O)Nc1cc2cccc(F)c2nc1C` [Compound F-1, (2S)-2-benzyl-N-(8-fluoro-2-methyl-3-quinolyl)-2,4-dimethyl-pent-4-enamide], the inhibition of growth at 200 ppm in [1], in [3], in [6] and in data set [7] was at least 80% throughout. Besides, the inhibition of growth at 20 ppm in data set [2] was at least 80%. The pest or weed control at 200 ppm in data set [4] and in [5] was at least 80% throughout.

`C=C(C)C[C@](C)(Cc1ccccc1)C(=O)Nc1cc2cccc(F)c2nc1C` [Compound F-2, (2R)-2-benzyl-N-(8-fluoro-2-methyl-3-quinolyl)-2,4-dimethyl-pent-4-enamide]: the inhibition of growth at 200 ppm in data set [1], in [3], in data set [6] and in data set [7] was at least 80% throughout. In [2], the inhibition of growth at 20 ppm was at least 80%. In addition, the pest or weed control at 200 ppm in data set [4] and in data set [5] was at least 80% each time.

Turning to `C=C(C)C[C@](C)(Cc1ccccc1)C(=O)Nc1cnc2c(F)cccc2c1C` [Compound F-6, (2R)-2-benzyl-N-(8-fluoro-4-methyl-3-quinolyl)-2,4-dimethyl-pent-4-enamide], the inhibition of growth at 200 ppm in data set [8], in [1], in [3], in data set [6] and in [7] was at least 80% each time. The inhibition of growth at 20 ppm in [2] is at least 80%. The pest or weed control at 200 ppm in data set [4] and in data set [5] was at least 80% each time.

As for `Cc1nc2c(F)cccc2cc1NC(=O)[C@](C)(Cc1ccccc1)CC(F)(F)F` [Compound F-11, (2R)-2-benzyl-4,4,4-trifluoro-N-(8-fluoro-2-methyl-3-quinolyl)-2-methyl-butanamide], the melting point fell in the range of 137 to 139 °C. Also, the inhibition of growth at 200 ppm in [1] was at least 80%. Besides, in data set [2], the inhibition of growth at 20 ppm is at least 80%. For the same compound, in [3], the inhibition of growth at 200 ppm is at least 80%. Moreover, the pest or weed control at 200 ppm in data set [4] is at least 80%. Also, in data set [5], the pest or weed control at 200 ppm is at least 80%. The inhibition of growth at 200 ppm in data set [6] was at least 80%. The inhibition of growth at 200 ppm in data set [7] was at least 80%.
